Reference: PubChem BioAssay AID328 (DTP/NCI, 2004)
“And” between values parts separate entries of the source, which are not always exact repeats. Identical values can stand only once. Inconclusive results and toxic doses are left out. Rule for the calls: active = survival T/C of 150% or more; inactive = T/C below 125% in these data.

Test system: BDF1 mice, P388 leukemia ip, median survival T/C
Test: NCI In Vivo Anticancer Drug Screen. Data for tumor model P388 Leukemia (intraperitoneal) in B6D2F1 (BDF1) mice
Conditions: endpoint: median survival time, higher = longer survival
Method in brief: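 Transplantable tumour in mice; compound vs vehicle dosing; survival scored; ratio of treated to control reported.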

[1] = dose: 100.0 mg/kg/injection, schedule: Q04DX003 (ip), vehicle: saline
[2] = dose: 100.0 mg/kg/injection, schedule: Q01DX009 (ip), vehicle: saline with Tween-80
[3] = dose: 100.0 mg/kg/injection, schedule: Q04DX003 (ip), vehicle: saline with Tween-80
[4] = dose: 200.0 mg/kg/injection, schedule: Q01DX009 (ip), vehicle: saline with Tween-80
[5] = dose: 200.0 mg/kg/injection, schedule: Q04DX003 (ip), vehicle: saline with Tween-80
[6] = dose: 400.0 mg/kg/injection, schedule: Q04DX003 (ip), vehicle: saline with Tween-80
[7] = dose: 400.0 mg/kg/injection, schedule: Q01DX009 (ip), vehicle: saline with Tween-80
[8] = dose: 100.0 mg/kg/injection, schedule: Q04DX003 (ip), vehicle: Klucel (hydroxypropylcellulose) (HPC)
[9] = dose: 400.0 mg/kg/injection, schedule: Q04DX003 (ip), vehicle: Klucel (hydroxypropylcellulose) (HPC)

Measured: T/C

CCCCCCCCCCCCCCCCP(=O)(OCCOCCCCCC)OCCOCCCCCC
inactive: dose: 12.5 mg/kg/injection, schedule: Q01DX009 (ip), vehicle: alcohol 105 % of control | dose: 12.5 mg/kg/injection, schedule: Q01DX009 (ip), vehicle: saline 87 % of control | dose: 25.0 mg/kg/injection, schedule: Q01DX009 (ip), vehicle: alcohol 105 % of control | dose: 82.5 mg/kg/injection, schedule: Q01DX001 (ip), vehicle: saline 100 % of control | dose: 165.0 mg/kg/injection, schedule: Q01DX001 (ip), vehicle: saline 100 % of control

Nc1nc(N=Nc2ccc(O)cc2)cc(=O)[nH]1
inactive: dose: 50.0 mg/kg/injection, schedule: Q01DX009 (ip), vehicle: other 106 % of control | dose: 100.0 mg/kg/injection, schedule: Q01DX009 (ip), vehicle: other 110 % of control | dose: 200.0 mg/kg/injection, schedule: Q01DX009 (ip), vehicle: other 103 % of control | dose: 400.0 mg/kg/injection, schedule: Q01DX009 (ip), vehicle: other 112 % of control

COc1cc(O)c2c(c1)C(=O)c1cc(C)cc(O)c1C2=O
inactive: dose: 2.5 mg/kg/injection, schedule: Q01DX009 (ip), vehicle: saline with Tween-80 100 % of control | dose: 5.0 mg/kg/injection, schedule: Q01DX009 (ip), vehicle: saline with Tween-80 100 % of control | dose: 10.0 mg/kg/injection, schedule: Q01DX009 (ip), vehicle: saline with Tween-80 95 % of control | dose: 20.0 mg/kg/injection, schedule: Q01DX009 (ip), vehicle: saline with Tween-80 100 % of control

O=C1NCCS1
inactive: dose: 100.0 mg/kg/injection, schedule: Q04DX003 (ip), vehicle: saline sonified 90 % of control | dose: 200.0 mg/kg/injection, schedule: Q04DX003 (ip), vehicle: saline sonified 90 % of control | dose: 400.0 mg/kg/injection, schedule: Q04DX003 (ip), vehicle: saline sonified 95 % of control

CC(C#N)N(C)C (stereo not drawn)
inactive: dose: 10.0 mg/kg/injection, schedule: Q01DX009 (ip), vehicle: saline 110 % of control | dose: 10.0 mg/kg/injection, schedule: Q04DX003 (ip), vehicle: saline 95 % of control | dose: 20.0 mg/kg/injection, schedule: Q04DX003 (ip), vehicle: saline 91 % of control | dose: 40.0 mg/kg/injection, schedule: Q04DX003 (ip), vehicle: saline 95 % of control

O=C(O)C(O)C(=O)O
inactive: [1] 95 % of control

CCCCCCSc1ncnc2nc[nH]c12
inactive: [2] 109 % of control | [3] 100 % of control | [4] 100 % of control | [5] 100 % of control | [6] 95 % of control

O=C1C2CCCC1C(c1ccccc1)C=C2c1ccc(O)cc1 (stereo not drawn)
inactive: [3] 104 % of control | [5] 104 % of control | [6] 114 % of control

NC(=O)Oc1ccccc1
inactive: [2] 104 % of control | [4] 109 % of control | [7] 86 % of control

ClC1(Cl)Cc2ccccc21
inactive: [3] 109 % of control | dose: 266.0 mg/kg/injection, schedule: Q04DX003 (ip), vehicle: saline with Tween-80 108 % of control | [6] 108 % of control | dose: 600.0 mg/kg/injection, schedule: Q04DX003 (ip), vehicle: saline with Tween-80 120 % of control

N#CC1c2ccccc2C=CN1C(=O)c1ccccc1 (stereo not drawn)
inactive: dose: 50.0 mg/kg/injection, schedule: Q01DX009 (ip), vehicle: saline with Tween-80 115 % of control | [2] 110 % of control | [8] 100 % of control | [3] 100 % of control | [4] 110 % of control | dose: 200.0 mg/kg/injection, schedule: Q04DX003 (ip), vehicle: Klucel (hydroxypropylcellulose) (HPC) 109 % of control | [5] 100 % of control | [7] 110 % of control | [9] 109 % of control | [6] 100 % of control

O=C(Cn1ccc(=O)[nH]c1=O)c1ccc(Cl)s1
inactive: [2] 101 % of control and 112 % of control | [4] 102 % of control and 105 % of control | [7] 101 % of control and 115 % of control

CNc1ccc2c(c1)C(=O)c1c(C)n(C)c3cccc-2c13
inactive: dose: 12.5 mg/kg/injection, schedule: Q01DX005 (ip), vehicle: saline with Tween-80 98 % of control | dose: 25.0 mg/kg/injection, schedule: Q01DX005 (ip), vehicle: saline with Tween-80 98 % of control

OCCCN1CCC2(CC1)SSC1(CCN(CCCO)CC1)S2
inactive: dose: 50.0 mg/kg/injection, schedule: Q04DX003 (ip), vehicle: saline 95 % of control | [1] 100 % of control and 109 % of control | dose: 200.0 mg/kg/injection, schedule: Q04DX003 (ip), vehicle: saline 100 % of control and 104 % of control

CCCCCCCCCC[N+](C)(C)CCC[N+](C)(C)CCCCCCCCCC
inactive: dose: 0.78 mg/kg/injection, schedule: Q01DX009 (ip), vehicle: saline 87 % of control | dose: 1.56 mg/kg/injection, schedule: Q01DX009 (ip), vehicle: saline 98 % of control | dose: 3.12 mg/kg/injection, schedule: Q01DX009 (ip), vehicle: saline 100 % of control | dose: 3.13 mg/kg/injection, schedule: Q01DX009 (ip), vehicle: saline 120 % of control | dose: 6.25 mg/kg/injection, schedule: Q01DX009 (ip), vehicle: saline 116 % of control and 123 % of control

C(=NCCc1ccccc1)c1ccccc1B1OB(c2ccccc2C=NCCc2ccccc2)OB(c2ccccc2C=NCCc2ccccc2)O1
inactive: dose: 100.0 mg/kg/injection, schedule: Q01DX009 (ip), vehicle: Klucel (hydroxypropylcellulose) (HPC) 88 % of control | [8] 100 % of control | dose: 200.0 mg/kg/injection, schedule: Q01DX009 (ip), vehicle: Klucel (hydroxypropylcellulose) (HPC) 105 % of control | dose: 400.0 mg/kg/injection, schedule: Q01DX009 (ip), vehicle: Klucel (hydroxypropylcellulose) (HPC) 88 % of control | [9] 91 % of control

O=CC(=O)c1ccc(O)cc1
inactive: dose: 50.0 mg/kg/injection, schedule: Q04DX003 (ip), vehicle: saline sonified 109 % of control | dose: 300.0 mg/kg/injection, schedule: Q04DX003 (ip), vehicle: saline with Tween-80 86 % of control

O=C(O)c1cc([N+](=O)[O-])cc([N+](=O)[O-])c1 (tested in a mixture with another compound)
inactive: dose: 3.13 mg/kg/injection, schedule: Q04DX002 (ip), vehicle: saline with Tween-80 100 % of control | dose: 6.25 mg/kg/injection, schedule: Q04DX002 (ip), vehicle: saline with Tween-80 108 % of control | dose: 12.5 mg/kg/injection, schedule: Q04DX002 (ip), vehicle: saline with Tween-80 104 % of control | dose: 25.0 mg/kg/injection, schedule: Q04DX002 (ip), vehicle: saline with Tween-80 112 % of control

CCOC(=O)c1cnc(N(C)C)[nH]c1=O
inactive: dose: 12.5 mg/kg/injection, schedule: Q01DX009 (ip), vehicle: Klucel (hydroxypropylcellulose) (HPC) 103 % of control | dose: 25.0 mg/kg/injection, schedule: Q01DX009 (ip), vehicle: Klucel (hydroxypropylcellulose) (HPC) 95 % of control | dose: 50.0 mg/kg/injection, schedule: Q01DX009 (ip), vehicle: Klucel (hydroxypropylcellulose) (HPC) 86 % of control
